Measured values as given in US12728124B2, “Medical use of cystic fibrosis transmembrane conductance regulator (CFTR) modulators” (priority 2020, dated 2026).

Columns and labels:
[1] = system: human pulmonary microvascular endothelial cells (HPMECs); assay type: cell-based; conditions: pretreated 24 hours with 10 μmol/L Ivacaftor or 5 μmol/L Lumacaftor, then 0.25 μg/ml pneumolysin; vs pneumolysin alone
[2] = system: human pulmonary microvascular endothelial cells (HPMECs); experiment: Endothelial calcium concentration (fura-2 340/380 ratio) in HPMECs stimulated with pneumolysin; assay type: cell-based; conditions: 10 μmol/L Ivacaftor for 30 min, then PLY 0.25 μg/ml for 30 min
Procedure: Permeability of endothelial cells has been additionally assessed by measuring the endothelial calcium concentration as follows: Increases in the endothelial calcium concentration represent a key mechanism that underlies the increase endothelial cell permeability. Increased endothelial calcium leads to contraction of the cells and increase gap formation between endothelial cells that lead to increased permeability. In this measurement, HPMECs were cultured in channel slides to confluence. The confluent cells were incubated for 30 min with Hanks Balanced Salt Solution containing 5% fetal bovine serum (FBS) and 10 μmol/L of the calcium sensitive dye fura-2-acetoxymethyl ester (fura-2AM) dissolved in Pluronic F-127 (20% solution in DMSO). The cells were then mounted in a heated chamber at 37° C. and perfused with Hank's salt solution containing 5% FBS with 10 μmol/L Ivacaftor (Cayman chemical) for 30 min followed by PLY (0.25 μg/ml) stimulation for 30 min. Fura-2 fluorescence was excited by monochromatic illumination at wavelength 340 and 380 nm. After background correction, the 340/380 ratio was calculated using TillVision 4.0 software (Till Photonics Germany) as a measure of endothelial calcium concentration. As positive or negative controls, cells were stimulated with only pneumolysin or non-treated cells were used, respectively.

[3] = target: T1, CFTR (Homo sapiens, UniProt P13569); experiment: CFTR expression by Western blotting in HPMECs stimulated with pneumolysin; assay type: cell-based; conditions: pretreated 10 μmol/L Ivacaftor 24 hours, then 0.25 μg/ml PLY for 18 h; Western blot
Procedure: CFTR expression in endothelial cells was assessed by Western blotting. HPMECs were grown in 6 well plates to confluence. The confluent cells were pretreated with 10 μmol/L Ivacaftor (Cayman chemical) for 24 hours and the next day were stimulated with 0.25 μg/ml PLY for 18 h. Cells were lysed in RIPA buffer and protein concentration was measured by BCA assay and samples were stored at −80° C. or immediately analysed by western blot. Western blots were performed using 7.5% gel. After gel transfer, the blot membrane was incubated for 1 h in 5% milk diluted in tris buffer saline with tween 0.1% (TBS-T) followed by incubation for 24 h with CFTR antibody as the primary antibody diluted 1:500 in TBS-T. The next day, the membrane was incubated for 2 h in donkey anti rabbit as the secondary antibody diluted 1:10000 in TBS-T.

[4] = system: S. pneumoniae infected mice; experiment: S. pneumoniae infected mice, Ivacaftor pre-treatment: lung protein leakage, survival, BALF immune cells; assay type: in vivo, mouse
[5] = target: T2, CFTR (Mus musculus, UniProt P26361); experiment: CFTR expression by Western blotting in lungs of S. pneumoniae infected mice; assay type: in vivo; conditions: Ivacaftor 2 mg/kg i.p. pre-treatment; Western blot
T2 construct: Ivacaftor pre-treatment stabilized the expression of CFTR in lungs of mice infected with S. pneumoniae; from tissue; host or cells: mouse lung tissue (mice from Charles River, Germany)

[6] = system: S. pneumoniae infected mice; experiment: S. pneumoniae infected mice, Ivacaftor post-treatment: lung protein leakage; assay type: in vivo, mouse; conditions: Ivacaftor 2 mg/kg i.p. post-treatment from 6 hours post-infection
[7] = system: human pulmonary microvascular endothelial cells (HPMECs); experiment: Transendothelial electrical resistance (ECIS) of HPMECs stimulated with plasma from patients with severe COVID-19; assay type: cell-based; conditions: pretreated 24 hours with 10 μmol/L Ivacaftor or 5 μmol/L Lumacaftor, then 10% (v/v) severe COVID-19 plasma for 24 h
[8] = target: T1, CFTR; experiment: CFTR expression by Western blotting in HPMECs stimulated with plasma from patients with severe COVID-19; assay type: cell-based; conditions: pretreated 10 μmol/L Ivacaftor 24 hours, then 20% (v/v) severe COVID-19 plasma for 24 h; Western blot, densitometry
Procedure: CFTR expression in endothelial cells was assessed by Western blotting. HPMECs were grown in 6 well plates to confluence. The confluent cells were pretreated with 10 μmol/L Ivacaftor (Cayman chemical) for 24 hours and the next day were stimulated with the above described plasma from COVID-19 patients or healthy donors for 24 h. As positive control, cells were stimulated with the plasma from COVID-19 patients alone (in the absence of CFTR modulators). Plasma samples were diluted to 20% (v/v) for CFTR immunoblotting.
Cells were lysed in RIPA buffer and protein concentration was measured by BCA assay and samples were stored at −80° C. or immediately analysed by Western blot. Western blots were performed using 7.5% gel. After gel transfer, the blot membrane was incubated for 1 h in 5% milk diluted in tris buffer saline with tween 0.1% (TBS-T) followed by incubation for 24 h with CFTR antibody as the primary antibody diluted 1:500 in TBS-T. The next day, the membrane was incubated for 2 h in donkey anti rabbit as the secondary antibody diluted 1:10000 in TBS-T.

[9] = Ivacaftor 2 mg/kg i.p. pre-treatment, S. pneumoniae infected mice, 48 h p.i., FACS

T1 sequence (P13569 whole entry, looked up): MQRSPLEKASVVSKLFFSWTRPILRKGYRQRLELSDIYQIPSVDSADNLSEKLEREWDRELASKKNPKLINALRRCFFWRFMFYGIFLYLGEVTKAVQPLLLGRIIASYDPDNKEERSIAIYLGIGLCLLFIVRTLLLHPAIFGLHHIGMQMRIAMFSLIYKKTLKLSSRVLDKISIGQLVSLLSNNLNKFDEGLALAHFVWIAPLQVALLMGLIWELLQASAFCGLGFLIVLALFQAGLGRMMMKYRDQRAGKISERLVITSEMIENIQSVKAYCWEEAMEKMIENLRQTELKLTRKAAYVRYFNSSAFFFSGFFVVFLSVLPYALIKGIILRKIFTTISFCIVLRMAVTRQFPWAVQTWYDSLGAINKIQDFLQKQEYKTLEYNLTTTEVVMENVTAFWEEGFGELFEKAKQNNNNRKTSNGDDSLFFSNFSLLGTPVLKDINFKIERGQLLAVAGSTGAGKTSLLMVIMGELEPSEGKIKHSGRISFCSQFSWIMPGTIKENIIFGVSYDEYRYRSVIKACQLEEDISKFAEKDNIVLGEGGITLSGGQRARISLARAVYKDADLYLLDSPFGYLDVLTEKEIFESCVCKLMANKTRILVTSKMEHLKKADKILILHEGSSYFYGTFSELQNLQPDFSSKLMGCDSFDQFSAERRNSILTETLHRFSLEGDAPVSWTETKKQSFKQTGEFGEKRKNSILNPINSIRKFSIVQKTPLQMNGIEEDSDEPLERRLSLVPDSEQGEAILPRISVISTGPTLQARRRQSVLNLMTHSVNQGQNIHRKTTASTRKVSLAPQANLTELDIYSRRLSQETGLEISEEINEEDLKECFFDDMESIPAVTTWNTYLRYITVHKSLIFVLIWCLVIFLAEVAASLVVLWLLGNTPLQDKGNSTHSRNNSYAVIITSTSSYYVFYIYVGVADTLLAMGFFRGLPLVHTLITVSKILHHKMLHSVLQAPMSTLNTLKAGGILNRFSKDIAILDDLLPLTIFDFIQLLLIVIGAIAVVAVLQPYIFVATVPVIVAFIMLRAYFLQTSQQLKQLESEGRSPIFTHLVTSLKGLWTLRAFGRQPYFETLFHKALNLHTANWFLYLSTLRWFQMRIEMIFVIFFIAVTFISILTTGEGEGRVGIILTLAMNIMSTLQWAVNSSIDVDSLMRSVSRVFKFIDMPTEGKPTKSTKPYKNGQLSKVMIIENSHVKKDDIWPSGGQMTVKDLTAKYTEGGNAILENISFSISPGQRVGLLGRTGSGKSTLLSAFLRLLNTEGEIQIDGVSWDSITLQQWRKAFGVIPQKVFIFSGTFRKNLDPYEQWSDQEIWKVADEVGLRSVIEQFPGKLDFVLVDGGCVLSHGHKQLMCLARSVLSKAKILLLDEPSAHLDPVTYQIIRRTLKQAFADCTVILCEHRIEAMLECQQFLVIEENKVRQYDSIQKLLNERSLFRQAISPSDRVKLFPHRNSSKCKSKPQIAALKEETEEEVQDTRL
T2 sequence (P26361 whole entry): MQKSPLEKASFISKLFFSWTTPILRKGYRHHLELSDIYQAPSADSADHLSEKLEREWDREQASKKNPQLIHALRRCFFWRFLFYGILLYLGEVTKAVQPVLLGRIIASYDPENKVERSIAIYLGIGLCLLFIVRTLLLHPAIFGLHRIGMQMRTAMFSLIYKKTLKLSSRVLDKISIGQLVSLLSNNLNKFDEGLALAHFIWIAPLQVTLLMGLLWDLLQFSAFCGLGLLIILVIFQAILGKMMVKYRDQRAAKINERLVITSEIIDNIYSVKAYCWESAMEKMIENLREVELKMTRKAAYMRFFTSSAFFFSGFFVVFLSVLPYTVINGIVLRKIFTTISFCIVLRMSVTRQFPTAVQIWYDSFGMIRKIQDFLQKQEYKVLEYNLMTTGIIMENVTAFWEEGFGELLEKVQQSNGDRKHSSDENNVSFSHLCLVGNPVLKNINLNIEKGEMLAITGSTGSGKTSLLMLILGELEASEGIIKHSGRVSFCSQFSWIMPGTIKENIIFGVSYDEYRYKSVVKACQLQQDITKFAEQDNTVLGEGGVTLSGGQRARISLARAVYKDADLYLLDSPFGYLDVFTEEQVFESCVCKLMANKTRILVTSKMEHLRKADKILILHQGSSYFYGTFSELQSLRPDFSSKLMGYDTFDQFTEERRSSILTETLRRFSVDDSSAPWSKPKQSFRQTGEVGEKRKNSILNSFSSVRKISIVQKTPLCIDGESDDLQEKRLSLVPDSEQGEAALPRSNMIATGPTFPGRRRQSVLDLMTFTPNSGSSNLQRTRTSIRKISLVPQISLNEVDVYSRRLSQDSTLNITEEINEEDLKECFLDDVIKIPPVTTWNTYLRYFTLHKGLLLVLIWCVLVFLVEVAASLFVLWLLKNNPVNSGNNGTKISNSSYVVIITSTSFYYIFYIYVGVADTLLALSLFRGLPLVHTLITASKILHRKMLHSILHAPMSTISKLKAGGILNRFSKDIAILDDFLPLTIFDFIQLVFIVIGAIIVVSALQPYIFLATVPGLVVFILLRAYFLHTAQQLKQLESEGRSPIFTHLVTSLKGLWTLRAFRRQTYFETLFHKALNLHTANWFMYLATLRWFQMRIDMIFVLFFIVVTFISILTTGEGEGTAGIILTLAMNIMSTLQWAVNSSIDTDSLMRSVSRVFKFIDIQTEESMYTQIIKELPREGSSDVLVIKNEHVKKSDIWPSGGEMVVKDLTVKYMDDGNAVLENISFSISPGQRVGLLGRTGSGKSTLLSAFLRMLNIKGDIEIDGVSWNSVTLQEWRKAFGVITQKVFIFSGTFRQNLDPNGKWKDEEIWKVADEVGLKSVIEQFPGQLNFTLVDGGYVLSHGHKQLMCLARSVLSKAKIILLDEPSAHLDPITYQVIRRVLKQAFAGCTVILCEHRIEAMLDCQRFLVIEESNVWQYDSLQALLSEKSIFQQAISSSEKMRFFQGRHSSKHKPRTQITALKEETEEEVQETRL

SMILES	transendothelial electrical resistance of HPMEC monolayer after pneumolysin stimulation [1]	endothelial calcium concentration ([Ca2+]i) after pneumolysin stimulation [2]	CFTR expression in HPMECs after pneumolysin stimulation [3]	survival rate in S. pneumoniae infected mice ([4]; Ivacaftor 2 mg/kg i.p. pre-treatment)	endogenous mouse serum albumin BALF/plasma ratio (protein leakage into the lung) ([4]; Ivacaftor 2 mg/kg i.p. pre-treatment from 24 h before infection, 48 h post infection with S. pneumoniae)	exogenous human serum albumin (HSA) BALF/plasma ratio (protein leakage into the lung) ([4]; Ivacaftor 2 mg/kg i.p. pre-treatment from 24 h before infection, HSA i.v. 1 h before BAL, 48 h post infection)	inflammatory macrophages in BALF [4, 9]	leukocytes in BALF [4, 9]	polymorphonuclear leukocytes (PMN) in BALF [4, 9]	CFTR expression in lungs of S. pneumoniae infected mice [5]	endogenous mouse serum albumin BALF/plasma ratio (protein leakage into the lung) ([6]; 48 h post infection with S. pneumoniae)	exogenous human serum albumin (HSA) BALF/plasma ratio (protein leakage into the lung) ([6]; HSA i.v. 1 h before BAL, 48 h post infection)	transendothelial electrical resistance of HPMECs after stimulation with plasma from COVID-19 patients [7]	CFTR expression in HPMECs after stimulation with plasma from COVID-19 patients [8]
CC(C)(C)c1cc(C(C)(C)C)c(NC(=O)c2c[nH]c3ccccc3c2=O)cc1O [Ivacaftor, N-(5-hydroxy-2,4-ditert-butyl-phenyl)-4-oxo-1H-quinoline-3-carboxamide]	less reduced resistance	lesser increase	CFTR expression comparable to control cells	increased survival rate	reduced protein leakage into the lung	reduced protein leakage into the lung	decreased the levels of all three inflammatory cell subsets in the BALF	decreased the levels of all three inflammatory cell subsets in the BALF	decreased the levels of all three inflammatory cell subsets in the BALF	stabilized expression of CFTR	reduced protein leakage into the lung	reduced protein leakage into the lung	less reduced transendothelial electrical resistance	CFTR expression comparable to control cells
Cc1ccc(NC(=O)C2(c3ccc4c(c3)OC(F)(F)O4)CC2)nc1-c1cccc(C(=O)O)c1 [Lumacaftor, 3-[6-({[1-(2,2-difluoro-1,3-benzodioxol-5-yl)cyclopropyl]carbonyl}amino)-3-methylpyridin-2-yl]benzoic acid]	less reduced resistance	–	–	–	–	–	–	–	–	–	–	–	less reduced transendothelial electrical resistance	–
